From US20230271959A1, “HETEROCYCLIC COMPOUND AS BCL-2 INHIBITOR” (Beijing Innocare Pharma Tech Co., Ltd., priority 2020, published 2023)
Blank lines part the entries; values can stand above or below the compound they belong to.

Columns and labels:
[1] = test system: RS4;11 cells (acute lymphoblastic leukemia cells); experiment: RS4;11 cell proliferation, CellTilter-Glo luminescence cell viability assay; format: cell-based; conditions: Homo sapiens, RS4-11; CTG readout after 48 hours
Outline: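 RS4;11 cells plated overnight were exposed for 48 h at 37 °C, 5% CO2 to an 8-point, 4-fold compound dilution series; the vehicle control contained 0.2% DMSO. Viability was read by CellTiter-Glo luminescence. Percent inhibition was referenced to no-cell and DMSO controls, and IC50 came from a four-parameter sigmoidal fit.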

[2] = test system: relapsed/refractory CLL, MCL, MM; conditions: clinical; cited from earlier work
[3] = test system: patients with relapsed or refractory lymphoid malignancies; conditions: cited from earlier work
[4] = test system: chronic lymphocytic leukemia (CLL) patients; conditions: clinical; cited from earlier work
[5] = molecular target: T1, human recombinant Bcl-XL protein (Homo sapiens, UniProt Q07817); experiment: Fluorescence polarization test for inhibition of BCL-XL binding to FITC-BIM; conditions: 10 nM BCL-XL, 10 nM FITC-BIM, read-out: FP BCL-XL IC50
T1 construct: purchased Beijing Yiqiao Shenzhou Biotechnology Co., Ltd. 10455-H0SE
T1 sequence (Q07817 whole entry): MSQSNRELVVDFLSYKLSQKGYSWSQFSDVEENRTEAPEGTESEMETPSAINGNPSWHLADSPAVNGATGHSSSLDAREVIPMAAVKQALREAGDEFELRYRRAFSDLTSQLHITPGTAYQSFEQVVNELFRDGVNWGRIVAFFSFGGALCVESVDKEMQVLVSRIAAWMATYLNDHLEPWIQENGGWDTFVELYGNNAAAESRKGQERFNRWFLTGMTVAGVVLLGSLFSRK
Outline: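 Human recombinant Bcl-XL (10 nM diluted stock) preincubated with compound 15 min at RT in PBS pH 7.4, 1 mM DTT, then FITC-BIM peptide (10 nM diluted stock) added for 30 min in dark. FP read at ex 480/em 535 nm; no-protein wells = 100% inhibition; IC50 from 8-point 4-fold dilution curve fit.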

[6] = molecular target: T2, human recombinant Bcl-2 protein (Homo sapiens, UniProt P10415); experiment: Fluorescence polarization test for inhibition of BCL-2 binding to FITC-BIM; conditions: 5 nM BCL-2, 5 nM FITC-BIM, read-out: FP BCL-2 IC50
T2 construct: purchased Beijing Yigiao Shenzhou Biotechnology Co., Ltd. 10195-HOSE
T2 sequence (P10415 whole entry): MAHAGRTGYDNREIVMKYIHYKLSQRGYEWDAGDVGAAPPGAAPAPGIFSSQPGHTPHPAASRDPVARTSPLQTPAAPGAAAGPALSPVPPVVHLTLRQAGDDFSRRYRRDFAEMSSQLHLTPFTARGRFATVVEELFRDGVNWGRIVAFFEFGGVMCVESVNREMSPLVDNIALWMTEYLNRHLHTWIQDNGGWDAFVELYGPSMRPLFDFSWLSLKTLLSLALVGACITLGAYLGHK
Outline: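 FP competition: compound preincubated 15 min with recombinant human Bcl-2 (diluted to 5 nM), then FITC-BIM (diluted to 5 nM) added for 30 min at room temperature in PBS pH 7.4 with 1 mM DTT. Polarization read at 480/535 nm; IC50 from 8-point 4-fold series fitted by four-parameter equation.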

IC50 [1]: 5.5 nM
Structure (SMILES): CC1(C)CCC(CN2CCN(c3ccc(C(=O)NS(=O)(=O)c4ccc(NCC5CCOCC5)c([N+](=O)[O-])c4)c(Oc4cnc5[nH]ccc5c4)c3)CC2)=C(c2ccc(Cl)cc2)C1 [Venetoclax, reference compound]
toxic side effects [2]: toxic side effects such as leukopenia and thrombocytopenia, anemia, diarrhea, dizziness, fatigue, susceptibility to infection

Structure (SMILES): CC1(C)CCC(c2ccc(Cl)cc2)=C(CN2CCN(c3ccc(C(=O)NS(=O)(=O)c4ccc(N[C@H](CCN5CCOCC5)CSc5ccccc5)c(S(=O)(=O)C(F)(F)F)c4)cc3)CC2)C1 [Navitoclax]
response ([3]; Phase I dose escalation): 50%
targeted toxicity ([3]; thrombocytopenia and severe anemia): very strong targeted toxicity related to BCL-XL

Structure (SMILES): COC1=CC(c2cc3ccccc3[nH]2)=N/C1=C\c1[nH]c(C)cc1C [Obatoclax]
neurotoxicity [4]: strong neurotoxicity

IC50 [5]: > 1000 nM
IC50 [6]: > 100 nM
IC50 [1]: > 500 nM
Structure (SMILES): C[C@H]1CN(c2ccc(C(=O)NS(=O)(=O)c3cc(F)c(NCC4CCOCC4)c([N+](=O)[O-])c3)c(Oc3cnc4[nH]ccc4c3)c2)CCN1CC1=C(c2ccc(Cl)cc2)CC(C)(C)CC1 [Example 7, (S)-2-((1H-pyrrolo[2,3-b]pyridin-5-yl)oxy)-(4-4-((4′-chloro-5,5-dimethyl-3,4,5,6-tetrahydro-[1,1′-biphenyl]-2-yl)methyl)-3-methylpiperazin-1-yl)-N-((3-fluoro-5-nitro-4-(((tetrahydro-2H-pyran-4-yl)methyl)amino)phenyl)sulfonyl) benzamide]
